For experiment [1], the system named is YAP nuclear translocation in HaCaT cells. Kind of experiment: YAP Translocation Assay (HaCaT Cells). The class given is cell-based, human. To be noted: Homo sapiens, 24 hours. The procedure:
HaCaT cells were suspended at 0.4×10^6 cells/ml in DMEM+10% FBS with penicillin-streptomycin-glutamine. 50 μl of cells were dispensed into 384-well clear bottom assay plates (20,000 cells/well), and incubated overnight at 37° C. 100 nL test compound was transferred into the assay wells containing HaCaT cells using ECHO (Labcyte). After 24 hours incubation at 37° C., 7 μL of 32% PFA was dispensed into each well and incubated for 45 minutes at room temperature. Plates were washed 3 times with PBS, leaving 20 μL of PBS per well, then treated with 0.1% Triton and 1.5% BSA in PBS for 45 minutes at room temperature. Plates were washed for 5 times with PBS, leaving 20 μL of PBS per well. […] Plates were further washed 3 time with PBS, sealed and imaged on the high-content Opera imaging system (PerkinElmer).

A further experiment concerns the target LATS1 (Homo sapiens (Human), UniProt O95835). Briefly: LATS1 biochemical assay (Table 1A, Compound Examples 1-290; method in the earlier part).
Experiment [2] concerns Phospho-YAP (SER127) in HaCaT cells. Kind of experiment: pYAP HTRF Assay (HaCaT Cells). The class given is cell-based, human. To be noted: Homo sapiens, 2 hours. The procedure:
The pYAP HTRF assay was performed using the Phospho-YAP (SER127) 10000 test kit (CisBio, catalogue number 64YAPPEH) according to manufacturer's instructions. Briefly, HaCaT cells were suspended at 1.1×10^6 cells/mL in DMEM (no phenol red)+10% FBS with penicillin-streptomycin-glutamine. 5 μL of cells were dispensed into 1536 well white solid bottom, tissue culture treated plates (5500 cells/well), and incubated for 48 hours at 37° C. 50 nL test compound was transferred into the assay plates containing HaCaT cells using Pintool (GNF) and incubated for 2 hours. […] The plates were incubated overnight (20 hrs) at room temperature covered with metal lids. Plates were read on Pherastar (BMG Labtech) for HTRF (665 nm/620 nm).

LATS1, sequence (O95835 whole entry, looked up): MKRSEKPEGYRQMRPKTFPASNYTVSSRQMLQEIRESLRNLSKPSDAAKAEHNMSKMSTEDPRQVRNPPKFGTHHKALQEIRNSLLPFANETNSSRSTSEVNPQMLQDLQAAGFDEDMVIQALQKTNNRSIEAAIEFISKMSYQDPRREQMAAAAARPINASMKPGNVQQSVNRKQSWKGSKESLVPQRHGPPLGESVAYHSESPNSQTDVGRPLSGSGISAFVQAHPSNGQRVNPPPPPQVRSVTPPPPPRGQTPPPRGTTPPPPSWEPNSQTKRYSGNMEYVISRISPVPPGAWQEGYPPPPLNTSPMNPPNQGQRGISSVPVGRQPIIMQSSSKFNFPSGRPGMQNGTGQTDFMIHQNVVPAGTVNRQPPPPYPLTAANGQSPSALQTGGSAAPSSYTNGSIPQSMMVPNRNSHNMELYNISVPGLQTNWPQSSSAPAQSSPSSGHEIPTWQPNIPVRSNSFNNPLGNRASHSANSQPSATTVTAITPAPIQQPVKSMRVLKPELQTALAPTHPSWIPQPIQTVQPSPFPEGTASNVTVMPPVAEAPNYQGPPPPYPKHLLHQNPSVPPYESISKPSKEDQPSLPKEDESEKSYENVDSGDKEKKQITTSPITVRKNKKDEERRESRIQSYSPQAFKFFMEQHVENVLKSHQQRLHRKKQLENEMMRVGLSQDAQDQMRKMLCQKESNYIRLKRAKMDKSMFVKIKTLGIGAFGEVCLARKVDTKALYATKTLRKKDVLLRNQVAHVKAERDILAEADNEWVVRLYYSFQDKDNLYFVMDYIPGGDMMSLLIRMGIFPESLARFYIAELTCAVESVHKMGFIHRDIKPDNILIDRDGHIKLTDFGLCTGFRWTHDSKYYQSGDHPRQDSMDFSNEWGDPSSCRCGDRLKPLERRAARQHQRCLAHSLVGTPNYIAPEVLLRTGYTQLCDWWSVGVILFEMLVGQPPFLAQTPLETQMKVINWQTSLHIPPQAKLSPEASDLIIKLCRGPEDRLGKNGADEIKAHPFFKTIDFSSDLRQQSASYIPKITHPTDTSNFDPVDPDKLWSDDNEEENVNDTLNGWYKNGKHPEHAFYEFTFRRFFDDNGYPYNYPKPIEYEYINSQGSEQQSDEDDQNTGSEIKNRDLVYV
LATS1, sequence (Q7L9L4 whole entry partner, looked up): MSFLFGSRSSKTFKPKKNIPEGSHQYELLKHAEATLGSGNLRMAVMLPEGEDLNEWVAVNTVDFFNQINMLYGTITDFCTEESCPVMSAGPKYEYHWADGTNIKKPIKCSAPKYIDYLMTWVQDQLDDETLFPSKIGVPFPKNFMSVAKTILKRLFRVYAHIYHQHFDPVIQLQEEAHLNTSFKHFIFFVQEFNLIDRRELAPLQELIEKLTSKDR

Regarding `CCC(CC)Nc1nc(-c2ccncc2)nc2cnccc12` [Example 73, N-(pentan-3-yl)-2-(pyridin-4-yl)pyrido[3,4-d]pyrimidin-4-amine], it took 8.26 µM to reach a half-maximal effect in experiment [1] (EC50). Besides, the IC50 was found to be 0.006 µM against LATS1 and 9.07 µM in experiment [2].
The like results for `Cn1nccc1-c1nc(NC2(C)CC2)c2ccncc2n1` [Example 172, 2-(1-methyl-1H-pyrazol-5-yl)-N-(1-methylcyclopropyl)pyrido[3,4-d]pyrimidin-4-amine] were, in that order, greater than 20 µM, 0.017 µM and greater than 10 µM.
The like results for `CCOC(=O)C1(Nc2nc(-c3ccncc3)nc3cnccc23)CCC1` [Example 55, ethyl 1-{[2-(pyridin-4-yl)pyrido[3,4-d]pyrimidin-4-yl]amino}cyclobutane-1-carboxylate] were, in that order, greater than 20 µM, 0.46 µM and greater than 10 µM.
The like results for `Cc1[nH]ncc1-c1nc(N[C@H](C)c2ccccc2)c2ccncc2n1` [Example 168, 2-(5-methyl-1H-pyrazol-4-yl)-N-[(1R)-1-phenylethyl]pyrido[3,4-d]pyrimidin-4-amine] were, in that order, 11.6 µM, 0.028 µM and 26.5 µM.
The compound `OCC1(Nc2nc(-c3ccncc3)nc3cnccc23)CCCC1` [Example 51, (1-{[2-(pyridin-4-yl)pyrido[3,4-d]pyrimidin-4-yl]amino}cyclopentyl)methanol] came in with an EC50 in experiment [1] of 4.39 µM. The results for the IC50 (against LATS1; in experiment [2]) were 0.006 µM and 57.8 µM, respectively.
The like results for `CC(C)(CC#N)Nc1nc(-c2ccncc2)nc2cnccc12` [Example 104, 3-methyl-3-{[2-(pyridin-4-yl)pyrido[3,4-d]pyrimidin-4-yl]amino}butanenitrile] were, in that order, 5.19 µM, 0.005 µM and 2.6 µM.
For `CC(CO)(CO)Nc1nc(-c2ccncc2)nc2cnccc12` [Example 23, 2-methyl-2-{[2-(pyridin-4-yl)pyrido[3,4-d]pyrimidin-4-yl]amino}propane-1,3-diol] the same measures were 11.8 µM, 0.01 µM and 9.58 µM.
Compound `CN(C)c1nc(-c2ccncc2)nc2cnccc12` [Example 88, N,N-dimethyl-2-(pyridin-4-yl)pyrido[3,4-d]pyrimidin-4-amine] came in with an EC50 in experiment [1] of 29.3 µM. Besides, the IC50 against LATS1 was found to be 0.037 µM; in experiment [2], 69.8 µM.
For `CC1(Nc2nc(-c3c(F)cncc3F)nc3cnccc23)CC1` [Example 147, 2-(3,5-difluoropyridin-4-yl)-N-(1-methylcyclopropyl)pyrido[3,4-d]pyrimidin-4-amine] the same measures were greater than 20 µM, 0.069 µM and greater than 10 µM.
Turning to `CS(=O)(=O)CCNc1nc(-c2ccncc2)nc2cnccc12` [Example 41, N-(2-methanesulfonylethyl)-2-(pyridin-4-yl)pyrido[3,4-d]pyrimidin-4-amine], the EC50 in experiment [1] was greater than 20 µM. Moreover, the IC50 at LATS1 is 0.708 µM; in experiment [2], greater than 10 µM.
The like results for `CC1(Nc2nc(-c3c[nH]nn3)nc3cnccc23)CC1` [Example 180, N-(1-methylcyclopropyl)-2-(1H-1,2,3-triazol-4-yl)pyrido[3,4-d]pyrimidin-4-amine] were, in that order, greater than 20 µM, 0.322 µM and greater than 10 µM.
As to `CC1(Nc2nc(-c3ccnc4[nH]ccc34)nc3cnccc23)CC1` [Example 154, N-(1-methylcyclopropyl)-2-{1H-pyrrolo[2,3-b]pyridin-4-yl}pyrido[3,4-d]pyrimidin-4-amine], the EC50 in experiment [1] came to 1.06 µM. In experiment [2], this compound returned an IC50 of 2.53 µM.
Consider `Cc1n[nH]c(C)c1-c1nc(NC(C)(C)C(F)(F)F)c2ccncc2n1` [Example 144, 2-(3,5-dimethyl-1H-pyrazol-4-yl)-N-(1,1,1-trifluoro-2-methylpropan-2-yl)pyrido[3,4-d]pyrimidin-4-amine], for which, in experiment [1], a half-maximal response (EC50) required 4.44 µM. The compound also had an IC50 in experiment [2] of 0.606 µM.
Compound `Cc1cc(-c2nc(NC3(C)CC3)c3ccncc3n2)on1` [Example 181, 2-(3-methyl-1,2-oxazol-5-yl)-N-(1-methylcyclopropyl)pyrido[3,4-d]pyrimidin-4-amine] came in with an EC50 in experiment [1] greater than 10 µM. In addition, the IC50 on LATS1 was 9 µM.
The like results for `Fc1ccc(Nc2nc(-c3ccncc3)nc3cnccc23)cc1` [Example 96, N-(4-fluorophenyl)-2-(pyridin-4-yl)pyrido[3,4-d]pyrimidin-4-amine] were, in that order, greater than 20 µM and greater than 1.7 µM.
Turning to `CC(C)(CCS(C)(=O)=O)Nc1nc(-c2ccncc2Cl)nc2cnccc12` [Example 129, 2-(3-chloropyridin-4-yl)-N-(4-methanesulfonyl-2-methylbutan-2-yl)pyrido[3,4-d]pyrimidin-4-amine], the EC50 in experiment [1] was greater than 20 µM. This compound also registered an IC50 against LATS1 of 0.187 µM.
Compound `CC(C)(O)COCC(C)(C)Nc1nc(-c2c[nH]nc2C(F)(F)F)nc2cnccc12` [Example 121, 2-methyl-1-[2-methyl-2-({2-[3-(trifluoromethyl)-1H-pyrazol-4-yl]pyrido[3,4-d]pyrimidin-4-yl}amino)propoxy]propan-2-ol] displayed an EC50 in experiment [1] of 8.17 µM. The compound further returned an IC50 against LATS1 of 0.014 µM.
For `O=C(O)C1CC(Nc2nc(-c3ccncc3)nc3cnccc23)C1` (stereo not shown) [Example 57, (1s,3s)-3-{[2-(pyridin-4-yl)pyrido[3,4-d]pyrimidin-4-yl]amino}cyclobutane-1-carboxylic acid] the same measures were greater than 20 µM and 1.44 µM.
For `Fc1cnccc1-c1cc(N2CCCCC2)c2ccncc2n1` [Example 278, 2-(3-fluoropyridin-4-yl)-4-(piperidin-1-yl)-1,7-naphthyridine] the same measures were greater than 20 µM and 0.09 µM.
In turn, `CC(C)(C)Nc1cc(-c2ccncc2Cl)nc2cnccc12` [Example 285, N-tert-butyl-2-(3-chloropyridin-4-yl)-1,7-naphthyridin-4-amine] showed an EC50 in experiment [1] greater than 20 µM. Moreover, on LATS1, the IC50 turned out to be 0.19 µM.
For `O=C(O)CCCCCNc1nc(-c2ccncc2)nc2cnccc12` [Example 94, 6-{[2-(pyridin-4-yl)pyrido[3,4-d]pyrimidin-4-yl]amino}hexanoic acid], the EC50 in experiment [1] is greater than 20 µM. Also, the IC50 against LATS1 amounted to 1.15 µM.
The like results for `C[C@](Nc1nc(-c2ccncc2)nc2cnccc12)(C(=O)O)C(F)(F)F` [Example 29, (2S)-3,3,3-trifluoro-2-methyl-2-{[2-(pyridin-4-yl)pyrido[3,4-d]pyrimidin-4-yl]amino}propanoic acid] were, in that order, greater than 20 µM and 0.036 µM.
The like results for `CCCNc1nc(-c2ccncc2Cl)nc2cnccc12` [Example 162, 2-(3-chloropyridin-4-yl)-N-propylpyrido[3,4-d]pyrimidin-4-amine] were, in that order, greater than 20 µM and 0.049 µM.
On to `CC1(Nc2nc(-c3cnc[nH]3)nc3cnccc23)CC1` [Example 177, 2-(1H-imidazol-5-yl)-N-(1-methylcyclopropyl)pyrido[3,4-d]pyrimidin-4-amine], for which the EC50 in experiment [1] was greater than 20 µM. The same compound displayed an IC50 on LATS1 greater than 2.5 µM.
As to `CC1(Nc2nc(-c3nn[nH]n3)nc3cnccc23)CC1` [Example 182, N-(1-methylcyclopropyl)-2-(2H-1,2,3,4-tetrazol-5-yl)pyrido[3,4-d]pyrimidin-4-amine], the EC50 in experiment [1] was greater than 20 µM. In addition, the IC50 against LATS1 was greater than 10 µM.

The values above are taken from patent US11458138B2 (Novartis AG, priority 2017, dated 2022).
